Laboratory results as given in EP0262903A2, “New acyl derivatives of 20-modified tylosin and desmycosin compounds” (priority 1986, dated 1988).
≈ marks a conversion by molar mass, not a printed value. Like-named read-outs stand apart in the source and are kept apart here.

How the values were obtained:
[1] = tested on: Staphylococcus aureus X400; assay: MIC, standard agar-dilution assay; format: cell-based
Protocol: (§1) The MIC's in Table II were determined by standard agar-dilution assays. The MIC's in Table III were obtained using conventional broth-dilution microtiter tests.

[2] = tested on: Haemophilus influenzae C.L.; assay: MIC, standard agar-dilution assay; format: cell-based
Protocol: as §1

[3] = tested on: Streptococcus faecalis X66; assay: MIC, standard agar-dilution assay; format: cell-based; conditions: Enterococcus faecalis
Protocol: as §1

[4] = tested on: Haemophilus influenzae 76; assay: MIC, standard agar-dilution assay; format: cell-based
Protocol: as §1

[5] = tested on: Staphylococcus aureus X1.1; assay: MIC, standard agar-dilution assay; format: cell-based
Protocol: as §1

[6] = tested on: Streptococcus pyogenes C203; assay: MIC, standard agar-dilution assay; format: cell-based
Protocol: as §1

[7] = tested on: Streptococcus pneumoniae Park I; assay: MIC, standard agar-dilution assay; format: cell-based
Protocol: as §1

[8] = tested on: Streptococcus faecalis 2041; assay: MIC, standard agar-dilution assay; format: cell-based; conditions: Enterococcus faecalis
Protocol: as §1

[9] = tested on: Staphylococcus aureus S13E; assay: MIC, standard agar-dilution assay; format: cell-based
Protocol: as §1

[10] = tested on: Klebsiella pneumoniae X68; assay: MIC, standard agar-dilution assay; format: cell-based
Protocol: as §1

[11] = tested on: Staphylococcus epidermidis 222; assay: MIC, standard agar-dilution assay; format: cell-based
Protocol: as §1

[12] = tested on: Staphylococcus aureus V41; assay: MIC, standard agar-dilution assay; format: cell-based
Protocol: as §1

Escherichia coli EC14 = assay: MIC, standard agar-dilution assay; format: cell-based
Protocol: as §1

[13] = tested on: Staphylococcus epidermidis EPI1; assay: MIC, standard agar-dilution assay; format: cell-based
Protocol: as §1

[14] = tested on: Pseudomonas aeruginosa X239; assay: MIC, standard agar-dilution assay; format: cell-based
Protocol: as §1

[15] = tested on: Streptococcus pyogenes C203; assay: ED50 in mice experimentally infected with S. pyogenes C203; format: in vivo
Protocol: The formula 1 compounds have shown in vivo antimicrobial activity against experimentally-induced infections in laboratory animals. When two doses of test compound were administered to mice experimentally infected with S. pyogenes C203, the activity observed was measured as an ED₅₀ value [effective dose in mg/kg to protect 50% of the test animals: see Warren Wick, et 5 al., J. Bacteriol. 81, 233-235 (1961)].

[16] = Staphylococcus aureus X400, Methicillin-resistant strain, agar dilution, read-out: MIC
[17] = Haemophilus influenzae C.L., Ampicillin-sensitive strain, agar dilution, read-out: MIC
[18] = Streptococcus faecalis X66, agar dilution, read-out: MIC
[19] = Haemophilus influenzae 76, Ampicillin-resistant strain, agar dilution, read-out: MIC
[20] = Staphylococcus aureus X1.1, agar dilution, read-out: MIC
[21] = Streptococcus pyogenes C203, agar dilution, read-out: MIC
[22] = Streptococcus pneumoniae Park I, agar dilution, read-out: MIC
[23] = Streptococcus faecalis 2041, agar dilution, read-out: MIC
[24] = Staphylococcus epidermidis 222, agar dilution, read-out: MIC
[25] = Staphylococcus aureus V41, Penicillin-resistant strain, agar dilution, read-out: MIC
[26] = Escherichia coli EC14, agar dilution, read-out: MIC
[27] = Staphylococcus epidermidis EPI1, agar dilution, read-out: MIC
[28] = Pseudomonas aeruginosa X239, agar dilution, read-out: MIC
[29] = C203, mice, oral, two doses given 1 and 4 hours post-infection, dose protecting 50% of the test animals, read-out: ED50 Oral
[30] = C203, sc, mice, subcutaneous, two doses given 1 and 4 hours post-infection, dose protecting 50% of the test animals, read-out: ED50 Subcutaneous

Row | Structure (SMILES) | MIC [1, 16] [µg/mL] | MIC [2, 17] [µg/mL] | MIC [3, 18] [µg/mL] | MIC [4, 19] [µg/mL] | MIC [5, 20] [µg/mL] | MIC [6, 21] [µg/mL] | MIC [7, 22] [µg/mL] | MIC [8, 23] [µg/mL] | MIC [9] [µg/mL] | MIC ([10]; Klebsiella pneumoniae, X68) [µg/mL] | MIC [11, 24] [µg/mL] | MIC [12, 25] [µg/mL] | MIC (Escherichia coli EC14; [26]) [µg/mL] | MIC [13, 27] [µg/mL] | MIC [14, 28] [µg/mL] | also measured
1 | CCC1OC(=O)CC(O)C(C)C(OC2OC(C)C(OC(C)=O)C(N(C)C)C2OC(C)=O)C(CCOc2ccccc2)CC(C)C(=O)C=CC(C)=CC1COC1OC(C)C(OC(C)=O)C(OC)C1OC (stereo not drawn) [Compound 1, 2ʹ,4ʹ,4ʹʹ-Tri-O-acetyl-20-DH-20-O-phenyl-desmycosin] | 4 (≈ 4.1 µM) | > 128 | 64 (≈ 65.6 µM) | > 128 | 4 (≈ 4.1 µM) | 1 (≈ 1.02 µM) | 8 (≈ 8.2 µM) | 128 (≈ 131 µM) | 4 (≈ 4.1 µM) | > 128 | 1 (≈ 1.02 µM) | 2 (≈ 2.05 µM) | > 128 | 4 (≈ 4.1 µM) | > 128 | –
2 | CCC1OC(=O)CC(O)C(C)C(OC2OC(C)C(O)C(N(C)C)C2O)C(CCOc2ccccc2)CC(C)C(=O)C=CC(C)=CC1COC1OC(C)C(OC(=O)Cc2ccccc2)C(OC)C1OC (stereo not drawn) [Compound 4, 20-DH-20-O-Phenyl-4ʹʹ-O-(phenylacetyl)-desmycosin] | – | – | – | – | – | – | – | – | 2 (≈ 2.07 µM) | > 128 | – | – | – | – | – | ED50 ([15]; C203, po, read-out: ED50 Oral): 14.2 mg/kg; ED50 ([15]; C203, sc, read-out: ED50 Subcutaneous): > 10 mg/kg; MIC ([1]; Staphylococcus aureus, X400): 2 µg/mL (≈ 2.07 µM); MIC ([2]; Haemophilus influenzae): 128 µg/mL (≈ 132 µM); MIC ([3]; X66): 16 µg/mL (≈ 16.5 µM); MIC ([4]; Haemophilus influenzae, 76): 128 µg/mL (≈ 132 µM); MIC ([5]; Staphylococcus aureus, X1.1): 2 µg/mL (≈ 2.07 µM); MIC ([6]; Streptococcus pyogenes, C203): 2 µg/mL (≈ 2.07 µM); MIC ([7]; Streptococcus pneumoniae): 4 µg/mL (≈ 4.13 µM); MIC [8]; 2041: 64 µg/mL (≈ 66.1 µM); MIC ([11]; Staphylococcus epidermidis, 222): 1 µg/mL (≈ 1.03 µM); MIC ([12]; Staphylococcus aureus, V41): 2 µg/mL (≈ 2.07 µM); MIC (Escherichia coli EC14; Escherichia coli, EC14): > 128 µg/mL; MIC ([13]; Staphylococcus epidermidis, EPI1): 2 µg/mL (≈ 2.07 µM); MIC ([14]; Pseudomonas aeruginosa, X239): > 128 µg/mL
3 | CCC1OC(=O)CC(O)C(C)C(OC2OC(C)C(O)C(N(C)C)C2O)C(CCOc2ccccc2)CC(C)C(=O)C=CC(C)=CC1COC1OC(C)C(OC(=O)C(NC(=O)OC(C)(C)C)c2ccccc2)C(OC)C1OC [Compound 6, 4ʹʹ-O-(N-BOC)-D-phenylglycyl-20-DH-20-O-phenyl-desmycosin] | 8 (≈ 7.38 µM) | > 128 | > 128 | > 128 | 8 (≈ 7.38 µM) | 8 (≈ 7.38 µM) | 16 (≈ 14.8 µM) | > 128 | 16 (≈ 14.8 µM) | > 128 | 8 (≈ 7.38 µM) | 8 (≈ 7.38 µM) | > 128 | 16 (≈ 14.8 µM) | > 128 | –
4 | CCC1OC(=O)CC(O)C(C)C(OC2OC(C)C(O)C(N(C)C)C2O)C(CCOc2ccccc2)CC(C)C(=O)C=CC(C)=CC1COC1OC(C)C(OC(=O)C(N)c2ccccc2)C(OC)C1OC [Compound 7, 20-DH-20-O-Phenyl-4ʹʹ-O-(D-phenylglycyl)-desmycosin] | 1 (≈ 1.02 µM) | 128 (≈ 130 µM) | 16 (≈ 16.3 µM) | 64 (≈ 65.1 µM) | 1 (≈ 1.02 µM) | 2 (≈ 2.03 µM) | 2 (≈ 2.03 µM) | 32 (≈ 32.5 µM) | 1 (≈ 1.02 µM) | > 128 | 1 (≈ 1.02 µM) | 2 (≈ 2.03 µM) | > 128 | 2 (≈ 2.03 µM) | > 128 | ED50 [15, 29]: 21 mg/kg; ED50 [15, 30]: > 10 mg/kg
5 | CCC1OC(=O)CC(O)C(C)C(OC2OC(C)C(OC(C)=O)C(N(C)C)C2OC(C)=O)C(CCOc2ccccc2)CC(C)C(=O)C=CC(C)=CC1COC1OC(C)C(OC(=O)CCl)C(OC)C1OC (stereo not drawn) [Compound 8, 2ʹ,4ʹ-Di-O-acetyl-4ʹʹ-O-(chloroacetyl)-20-DH-20-O-phenyl-desmycosin] | 2 (≈ 1.98 µM) | > 128 | 32 (≈ 31.7 µM) | > 128 | 2 (≈ 1.98 µM) | 2 (≈ 1.98 µM) | 8 (≈ 7.92 µM) | 128 (≈ 127 µM) | 2 (≈ 1.98 µM) | > 128 | 2 (≈ 1.98 µM) | 2 (≈ 1.98 µM) | > 128 | 2 (≈ 1.98 µM) | > 128 | –
6 | CCC1OC(=O)CC(O)C(C)C(OC2OC(C)C(O)C(N(C)C)C2O)C(CCOc2ccccc2)CC(C)C(=O)C=CC(C)=CC1COC1OC(C)C(OC(=O)CNCc2ccccc2)C(OC)C1OC (stereo not drawn) [Compound 11, 4ʹʹ-O-(N-Benzylaminoacetyl)-20-DH-20-O-phenyl-desmycosin] | 2 (≈ 2.01 µM) | 128 (≈ 128 µM) | 8 (≈ 8.02 µM) | 64 (≈ 64.2 µM) | 1 (≈ 1 µM) | 2 (≈ 2.01 µM) | 2 (≈ 2.01 µM) | 8 (≈ 8.02 µM) | 2 (≈ 2.01 µM) | > 128 | 2 (≈ 2.01 µM) | 2 (≈ 2.01 µM) | > 128 | 2 (≈ 2.01 µM) | > 128 | ED50 [15, 29]: 14.4 mg/kg; ED50 [15, 30]: 5.7 mg/kg
7 | CCC(C)CN(CC)CCC1CC(C)C(=O)C=CC(C)=CC(COC2OC(C)C(OC(C)=O)C(OC)C2OC)C(CC)OC(=O)CC(O)C(C)C1OC1OC(C)C(O)C(N(C)C)C1O (stereo not drawn) [Compound 17, 4ʹʹ-O-Acetyl-20-DH-20-deoxy-20-[N-ethyl-N-(2-methylbutyl)amino]desmycosin] | 4 (≈ 4.38 µM) | 64 (≈ 70.1 µM) | 64 (≈ 70.1 µM) | 128 (≈ 140 µM) | 8 (≈ 8.76 µM) | 4 (≈ 4.38 µM) | 4 (≈ 4.38 µM) | 64 (≈ 70.1 µM) | 8 (≈ 8.76 µM) | – | 4 (≈ 4.38 µM) | 8 (≈ 8.76 µM) | > 128 | 8 (≈ 8.76 µM) | > 128 | MIC ([10]; Klebsiella pneumoniae X68, agar dilution, read-out: MIC): > 128 µg/mL
8 | CCC1OC(=O)CC(O)C(C)C(OC2OC(C)C(O)C(N(C)C)C2O)C(CCN2CC(C)CC(C)C2)CC(C)C(=O)C=CC(C)=CC1COC1OC(C)C(OC(C)=O)C(OC)C1OC (stereo not drawn) [Compound 19, 4ʹʹ-O-Acetyl-20-DH-20-deoxy-20-(3,5-dimethylpiperidin-1-yl)-desmycosin] | 1 (≈ 1.1 µM) | 32 (≈ 35.1 µM) | 8 (≈ 8.78 µM) | 64 (≈ 70.2 µM) | 2 (≈ 2.19 µM) | 0.125 (≈ 0.137 µM) | 0.125 (≈ 0.137 µM) | 8 (≈ 8.78 µM) | 1 (≈ 1.1 µM) | > 128 | 1 (≈ 1.1 µM) | 1 (≈ 1.1 µM) | > 128 | 1 (≈ 1.1 µM) | > 128 | –
